Reference: PMC10391911, “Differential effects of two phosphodiesterase 4 inhibitors against lipopolysaccharide-induced neuroinflammation in mice” (BMC Neuroscience, 2023)

Experiments:
[1] = system: NF-κB signaling pathway in LPS-exposed BV-2 cells; test: Western blotting of p-NF-κB and NF-κB in LPS-exposed BV-2 cells; assay type: cell-based, murine; conditions: 1 and 10 µM, LPS 1 µg/mL 4 h
Description: Then the cells were incubated with or without LPS (1 µg/mL) for 4 h. Cells were harvested using trypsin and washed twice in cold Dulbecco’s phosphate-buffered saline and lysed with RIPA lysis buffer (Elpis, Daejeon, Korea) containing protease and phosphatase inhibitor mini tablets (Thermo Fisher, Waltham, MA, USA). Protein lysate concentrations were determined using the Pierce BCA Protein Assay kit (Thermo Fisher). Protein samples (5 µg) were separated via 5–20% sodium dodecyl sulfate polyacrylamide gel electrophoresis and then transferred to polyvinylidene fluoride membranes (ATTO, Tokyo, Japan). After transfer, membranes were blocked using Tris-buffered saline containing 0.5% Tween 20 and 5% bovine serum albumin at room temperature for 1 h. The membranes were incubated overnight at 4℃ with primary antibodies at a dilution ratio of 1:1000. […] Subsequently, blots were detected using horseradish peroxidase-conjugated secondary antibodies (1:10,000 dilution) and the ECL substrate (Millipore Corporation, Billerica, MA, USA) at room temperature for 1 h. Protein expression levels were measured using WSE-6100 LuminoGraph (ATTO). The bands were analyzed using the ImageJ software (NIH, Bethesda, MD, USA).

[2] = system: PDE4As, PDE4Bs and PDE4Ds; conditions: against PDE4As; cited from earlier work
PDE4Cs = conditions: against PDE4Cs; cited from earlier work
PDE4B = conditions: quoted in discussion without reference, cf. b4; read-out: PDE4B inhibitory concentration; cited from earlier work
[3] = mice and rats; cited from earlier work
memory = conditions: rodents; cited from earlier work
APP/PS1 mouse model = conditions: 0.1, 0.2, and 0.4 mg/kg intragastrically for 3 weeks, APP/PS1 mice; cited from earlier work
[4] = system: TNF-α, IL-1β, and IL-6 levels and apoptotic neurons in the brain; conditions: 3 mg/kg subcutaneous, following subarachnoid hemorrhage; cited from earlier work
BV-2 cells = assay type: cell-based, murine; conditions: 24 h exposure, tested up to 100 µM
Description: Cell viability was assessed using the WST-8 assay with Cyto X reagent (LPS Solution, Daejeon, Korea). BV-2 microglial cells were seeded at a density of 5 × 10^5 cells/mL in 96-well plates. […] Finally, Cyto X solution was loaded in each well and incubated for 20 min.

PDE4D7 = system: PDE4D7; parameters: method as in PMID 33363155; conditions: against PDE4D7; cited from earlier work
PDE4D3 = system: PDE4D3; parameters: method as in PMID 33363155; conditions: against PDE4D3; cited from earlier work
brain cAMP levels = system: brain cAMP levels; parameters: method as in PMID 28772081, PMID 33363155; conditions: cited from earlier work

Compound	Effect on LPS-induced increase in p-NF-κB expression [1]	IC50 [2]	IC50 (PDE4Cs)	IC50 (PDE4B)	Calculated oral emetic dosages [3]	Effect on memory in object-location task and spatial Y-maze (memory)	Performance in Morris water maze, novel object recognition, and passive avoidance tasks (APP/PS1 mouse model)	TNF-α, IL-1β, and IL-6 levels and number of apoptotic neurons in the brain [4]	Nontoxic concentrations (BV-2 cells)	IC50 (PDE4D7)	IC50 (PDE4D3)	Effect on brain cAMP levels (brain cAMP levels)
O=C(Nc1c(Cl)cncc1Cl)c1ccc(OC(F)F)c(OCC2CC2)c1 [roflumilast]	prevented the LPS-induced increase in p-NF-κB expression in a concentration-dependent manner	[…]	[…]	[…]	[…]	enhanced memory	restored performance	decreased				
O=C(O)Cc1ccc(Cc2cc(-c3cccc(Cl)c3)nc(C(F)(F)F)c2)cc1 [zatolmilast]	did not								[…]	[…]	7.4 nM	increases brain cAMP levels
